Some test systems named below: HCT-15; MOLT-4; SN12C; NCI-H522; NCI/ADR-RES; EKVX; OVCAR-3; COLO 205; NCI-H23; PC-3; HCT-116; Malme-3M; CAKI-1; IGROV-1; MCF7; CCRF-CEM; DU-145; HT-29; M14; T47D.
Holding throughout (assay): inhibition of tumour cell growth, NCI panel, 48 h

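Following 48 hours of exposure in 96-well plates, responses at five concentrations were used to interpolate endpoints linearly. The concentration for 50% growth inhibition is given as GI50.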 Calls of active or inactive are those of the source. Cut-off read from the data, not from the text of the source: active = GI50 up to about 1.1 µM and inactive = higher.

For `O=C(/C=C/c1ccccc1)CCN1CCN(CCC(=O)/C=C/c2ccccc2)CC1`, the GI50 is 10.9 µM in the experiment with HCT-15; 4.47 µM (inactive) in the experiment with MOLT-4; 10.1 µM (inactive) with SN12C; 13.2 µM (inactive) with NCI-H522; 24.7 µM (inactive) in the experiment on NCI/ADR-RES; 18.6 µM (inactive) in the experiment on EKVX. For the same molecule, the GI50 was 16.8 µM (inactive) in the experiment with OVCAR-3; 16.4 µM (inactive) in the experiment on COLO 205; 16 µM (inactive) with NCI-H23; 16.8 µM (inactive) in the experiment with PC-3; 2.16 µM (inactive) in the experiment on HCT-116; 16.2 µM (inactive) in the experiment on Malme-3M. Moreover, the GI50 is 17.2 µM (inactive) in the experiment with CAKI-1; 18.2 µM (inactive) in the experiment with IGROV-1; 5.81 µM (inactive) with MCF7; 3.29 µM (inactive) in the experiment with CCRF-CEM; 17.6 µM (inactive) in the experiment with DU-145; 14.3 µM (inactive) with HT-29. Further, the GI50 was 11.7 µM (inactive) in the experiment on M14 and 14.9 µM (inactive) with T47D.

Take `O=C(O)CNc1ccc2c(c1)Cc1cc(Br)ccc1-2`: the GI50 in the experiment on HCT-15 is 31.1 µM; in the experiment with MOLT-4 it was 0.746 µM (active); in the experiment with SN12C, 22.7 µM (inactive); in the experiment with NCI-H522, 18.5 µM (inactive); in the experiment with NCI/ADR-RES, 25.6 µM (inactive); in the experiment with EKVX, 5.2 µM (inactive). In addition, the GI50 in the experiment on OVCAR-3 is 28.5 µM (inactive); in the experiment with COLO 205, 21.1 µM (inactive); with NCI-H23, 18 µM (inactive); in the experiment with PC-3, 27.2 µM (inactive); in the experiment on HCT-116, 18.5 µM (inactive); in the experiment on Malme-3M it was 20.6 µM (inactive). In addition, the GI50 in the experiment with CAKI-1 is 19.5 µM (inactive); in the experiment with IGROV-1 it was 18 µM (inactive); in the experiment on MCF7, > 38.4 µM (inactive); in the experiment with CCRF-CEM, 22.1 µM (inactive); with DU-145, 25.9 µM (inactive); with HT-29, 27.1 µM (inactive). For the same molecule, the GI50 with M14 was 21.8 µM (inactive); with T47D, 20.4 µM (inactive).

`CCCCCCCCCCCCN(CC(O)C(O)C(OC1OC(CO)C(O)C(O)C1O)C(O)CO)C(=O)CCCCCCCCCCC` (stereo not given): the GI50 in the experiment with HCT-15 was 18.6 µM; with MOLT-4, 25.1 µM (inactive); with SN12C, 22.1 µM (inactive); in the experiment with NCI-H522, 24.1 µM (inactive); with NCI/ADR-RES, 23.8 µM (inactive); with EKVX, 18.8 µM (inactive). Also, the GI50 was 21.8 µM (inactive) in the experiment on OVCAR-3; 20.4 µM (inactive) in the experiment on COLO 205; 21.4 µM (inactive) with NCI-H23; 25.2 µM (inactive) in the experiment with PC-3; 19.5 µM (inactive) with HCT-116; 18.5 µM (inactive) in the experiment with Malme-3M. Besides, the GI50 was 19 µM (inactive) in the experiment on CAKI-1; 19.9 µM (inactive) in the experiment on IGROV-1; 28.1 µM (inactive) in the experiment with MCF7; 31.9 µM (inactive) with CCRF-CEM; 20.6 µM (inactive) in the experiment with DU-145; 19 µM (inactive) with HT-29. The GI50 in the experiment with M14 was 19.5 µM (inactive); with T47D it was 28.1 µM (inactive).

`CC1=CC(=O)C(C(O)(C(F)(F)F)C(F)(F)F)C(C)(C)C1` (stereo not given): the GI50 in the experiment on HCT-15 was greater than 10 µM; in the experiment on MOLT-4, > 10 µM (inactive); with SN12C it was > 10 µM (inactive); in the experiment on NCI-H522 it was > 10 µM (inactive); with NCI/ADR-RES, > 10 µM (inactive); in the experiment on EKVX, > 10 µM (inactive). The GI50 with OVCAR-3, with COLO 205, with NCI-H23, with PC-3, in the experiment on HCT-116 and in the experiment with Malme-3M was > 10 µM (inactive) throughout. Besides, the GI50 with CAKI-1, with IGROV-1, with MCF7, with CCRF-CEM, in the experiment on DU-145 and in the experiment on HT-29 was > 10 µM (inactive) each time. Besides, the GI50 in the experiment on M14 and in the experiment with T47D was > 10 µM (inactive) in each case.

As for `Nn1c(S)nnc1CCCCCCCCc1nnc(S)n1N`, the GI50 in the experiment on HCT-15 was greater than 100 µM; in the experiment with MOLT-4, > 100 µM (inactive); with SN12C, > 100 µM (inactive); in the experiment on NCI-H522 it was > 100 µM (inactive); with NCI/ADR-RES it was > 100 µM (inactive); with EKVX it was > 100 µM (inactive). In addition, the GI50 in the experiment with OVCAR-3, in the experiment with COLO 205, in the experiment with NCI-H23, in the experiment on PC-3, with HCT-116 and in the experiment on Malme-3M was > 100 µM (inactive) each time. Moreover, the GI50 was > 100 µM (inactive) in the experiment with CAKI-1; > 100 µM (inactive) in the experiment on IGROV-1; > 100 µM (inactive) with MCF7; 90.8 µM (inactive) in the experiment on CCRF-CEM; > 100 µM (inactive) in the experiment with DU-145; > 100 µM (inactive) with HT-29. Besides, the GI50 with M14 and in the experiment with T47D was > 100 µM (inactive) throughout.

With `O=C(O)c1ccccc1Sc1ccccc1[N+](=O)[O-]`, the GI50 in the experiment with HCT-15 is greater than 100 µM; in the experiment on MOLT-4 it was > 100 µM (inactive); with SN12C, > 100 µM (inactive); in the experiment on NCI-H522, > 100 µM (inactive); in the experiment with NCI/ADR-RES it was > 100 µM (inactive); with EKVX it was > 100 µM (inactive). The GI50 in the experiment with OVCAR-3, with COLO 205, with NCI-H23, in the experiment on PC-3, with HCT-116 and in the experiment with Malme-3M was > 100 µM (inactive) each time. The GI50 in the experiment with CAKI-1, in the experiment on IGROV-1, with MCF7, with CCRF-CEM, in the experiment with DU-145 and in the experiment with HT-29 was > 100 µM (inactive) each time. For the same molecule, the GI50 with M14 and in the experiment on T47D was > 100 µM (inactive) each time.
